Usually IC50 stands for the midpoint of a concentration-inhibition curve.

Where a SMILES comes first, the peptide text is derived from it. Bridges are numbered along the chain shown (N, C = ends). [ ]: non-standard residue; d: D form. The star is where a group is joined. ξ: configuration not given here. Phe(4-COOH) = N[C@@H](Cc1ccc(C(=O)O)cc1)C(=O)O; Bip = N[C@@H](Cc1ccc(-c2ccccc2)cc1)C(=O)O; Phe(3-Me) = Cc1cccc(C[C@H](N)C(=O)O)c1; Val(3-OH) = CC(C)(O)[C@H](N)C(=O)O; Cha = N[C@@H](CC1CCCCC1)C(=O)O; Cit = NC(=O)NCCC[C@H](N)C(=O)O; Thr(3ξ) = CC(O)[C@H](N)C(=O)O; Carboxymethyl = O=C(O)C*; NMeA = CN[C@@H](C)C(=O)O; Aun = NCCCCCCCCCCC(=O)O; Dab = NCC[C@H](N)C(=O)O; AEEA = NCCOCCOCC(=O)O

For one assay, the target named is T1, PD-1/PD-L1 interaction (PE-labeled human PD-L1-Ig binding to Jurkat cell line over-expressing human PD-1) (Homo sapiens, UniProt Q15116).
T1 construct: expressed in transfected cells; host or cells: Jurkat
T1 sequence (Q15116 25-288): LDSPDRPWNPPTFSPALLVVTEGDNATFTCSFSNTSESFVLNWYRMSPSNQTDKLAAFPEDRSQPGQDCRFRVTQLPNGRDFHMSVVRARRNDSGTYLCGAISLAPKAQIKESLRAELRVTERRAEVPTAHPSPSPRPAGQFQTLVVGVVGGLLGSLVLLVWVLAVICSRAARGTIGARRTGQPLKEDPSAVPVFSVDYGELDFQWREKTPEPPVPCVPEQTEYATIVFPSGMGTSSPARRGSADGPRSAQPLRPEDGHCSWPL
The assay can be described thus: Jurkat-PD-1 Cell Binding High-Content Screening Assay (CBA). To be noted: Jurkat-hPD-1 cells, PE-labeled PD-L1-Ig 20 nM final; read-out: Jurkat HPD1 PDL1 IC50. The method in brief: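 Jurkat-hPD-1 cells (8×10^3/well) in DMEM with 10% fetal calf serum were preincubated with compound for 2 h at 37 °C. PE-labeled PD-L1-Ig was then added at 20 nM final for 1 h. Cells were fixed in paraformaldehyde with Hoechst 33342, washed and imaged by high-content imaging.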
`CC(C)C[C@@H]1NC(=O)[C@H](Cc2c[nH]c3ccccc23)NC(=O)[C@H](CC(=O)O)NC(=O)[C@H](Cc2ccc(OCC(=O)O)cc2)NC(=O)[C@H](Cc2ccc(OCC(=O)O)cc2)NC(=O)CSC[C@@H](C(=O)NCCOCCOCC(=O)NCCCCCCCCCCC(=O)O)NC(=O)[C@H](CO)NC(=O)[C@H](C(C)(C)O)NC(=O)[C@H](CC2CCCCC2)NC(=O)[C@H](CCN)NC(=O)[C@@H](CC(C)C)NC(=O)[C@H](C)N(C)C(=O)[C@H](C(C)C)NC(=O)[C@H](Cc2ccc(-c3ccccc3)cc2)NC1=O` [Example 2444] ({CH2CO}-Y(Carboxymethyl)Y(Carboxymethyl)DWL[Bip]V[NMeA][dL][Dab][Cha][Val(3-OH)]SC[AEEA][Aun]-OH; thioether N-14): the 50% inhibitory concentration (IC50) was 0.0404 µM.
On the same count and under the same terms, then `CC(C)C[C@@H]1NC(=O)[C@H](Cc2c[nH]c3ccccc23)NC(=O)[C@H](CC(=O)O)NC(=O)[C@H](Cc2ccc(OCC(=O)O)cc2)NC(=O)[C@H](Cc2ccc(OCC(=O)O)cc2)NC(=O)CSC[C@@H](C(=O)NCCOCCOCC(=O)NCCCCCCCCCCC(=O)O)NC(=O)[C@H](CO)NC(=O)[C@H](Cc2cnc[nH]2)NC(=O)[C@H](CC2CCCCC2)NC(=O)[C@H](CCN)NC(=O)[C@@H](CC(C)C)NC(=O)[C@H](C)N(C)C(=O)[C@H](C(C)C)NC(=O)[C@H](Cc2ccc(-c3ccccc3)cc2)NC1=O` [Example 2445] ({CH2CO}-Y(Carboxymethyl)Y(Carboxymethyl)DWL[Bip]V[NMeA][dL][Dab][Cha]HSC[AEEA][Aun]-OH; thioether N-14), with 0.0465 µM; and `CC(C)C[C@@H]1NC(=O)[C@H](Cc2c[nH]c3ccccc23)NC(=O)[C@H](CC(=O)O)NC(=O)[C@H](Cc2ccc(OCC(=O)O)cc2)NC(=O)[C@H](Cc2ccc(OCC(=O)O)cc2)NC(=O)CSC[C@@H](C(=O)NCCOCCOCC(=O)NCCCCCCCCCCC(=O)O)NC(=O)[C@H](CO)NC(=O)[C@H](C(C)(C)O)NC(=O)[C@H](CC2CCCCC2)NC(=O)[C@H](CC(N)=O)NC(=O)[C@@H](CC(C)C)NC(=O)[C@H](C)N(C)C(=O)[C@H](C(C)C)NC(=O)[C@H](Cc2ccc(-c3ccccc3)cc2)NC1=O` [Example 2446] ({CH2CO}-Y(Carboxymethyl)Y(Carboxymethyl)DWL[Bip]V[NMeA][dL]N[Cha][Val(3-OH)]SC[AEEA][Aun]-OH; thioether N-14), with 0.239 µM.
For `CC(=O)NCC[C@@H]1NC(=O)[C@H](C(C)(C)O)NC(=O)[C@H](CC2CCCCC2)NC(=O)[C@H](CCN)NC(=O)[C@@H](CC(C)C)NC(=O)[C@H](C)N(C)C(=O)[C@H](C(C)C)NC(=O)[C@H](Cc2ccc(-c3ccccc3)cc2)NC(=O)[C@H](CC(C)C)NC(=O)[C@H](Cc2c[nH]c3ccccc23)NC(=O)[C@H](CC(=O)O)NC(=O)[C@H](Cc2ccc(OCC(=O)O)cc2)NC(=O)[C@H](Cc2ccc(OCC(=O)O)cc2)NC(=O)CSC[C@@H](C(=O)NCCOCCOCC(=O)NCCCCCCCCCCC(=O)O)NC1=O` [Example 2447] ({CH2CO}-Y(Carboxymethyl)Y(Carboxymethyl)DWL[Bip]V[NMeA][dL][Dab][Cha][Val(3-OH)][Dab](Ac)C[AEEA][Aun]-OH; thioether N-14), the IC50 came to 0.0382 µM.
On the same count and under the same terms, to `CC(C)C[C@@H]1NC(=O)[C@H](Cc2c[nH]c3ccccc23)NC(=O)[C@H](CC(=O)O)NC(=O)[C@H](Cc2ccc(OCC(=O)O)cc2)NC(=O)[C@H](C(C)O)NC(=O)CSC[C@@H](C(=O)NCCOCCOCC(=O)NCCCCCCCCCCC(=O)O)NC(=O)[C@H](CO)NC(=O)[C@H](C(C)(C)O)NC(=O)[C@H](CC2CCCCC2)NC(=O)[C@H](CCC(=O)O)NC(=O)[C@@H](CC(C)C)NC(=O)[C@H](C)N(C)C(=O)[C@H](C(C)C)NC(=O)[C@H](Cc2ccc(-c3ccccc3)cc2)NC1=O` (stereo partly drawn) [Example 2448] ({CH2CO}-[Thr(3ξ)]Y(Carboxymethyl)DWL[Bip]V[NMeA][dL]E[Cha][Val(3-OH)]SC[AEEA][Aun]-OH; thioether N-14) belongs 0.128 µM.
Regarding `CC(C)C[C@@H]1NC(=O)[C@H](Cc2c[nH]c3ccccc23)NC(=O)[C@H](CC(=O)O)NC(=O)[C@H](Cc2ccc(OCC(=O)O)cc2)NC(=O)[C@H](Cc2ccc(OCC(=O)O)cc2)NC(=O)CSC[C@@H](C(=O)NCCOCCOCC(=O)NCCCCCCCCCCC(=O)O)NC(=O)[C@H](CO)NC(=O)[C@H](Cc2cnc[nH]2)NC(=O)[C@H](CC2CCCCC2)NC(=O)[C@H](CCC(=O)O)NC(=O)[C@@H](CC(C)C)NC(=O)[C@H](C)N(C)C(=O)[C@H](C(C)C)NC(=O)[C@H](Cc2ccc(-c3ccccc3)cc2)NC1=O` [Example 2449] ({CH2CO}-Y(Carboxymethyl)Y(Carboxymethyl)DWL[Bip]V[NMeA][dL]E[Cha]HSC[AEEA][Aun]-OH; thioether N-14), the IC50 is 0.272 µM.
As for `CC(=O)NCCCC[C@@H]1NC(=O)[C@H](Cc2ccc(-c3ccccc3)cc2)NC(=O)[C@H](Cc2ccc(O)cc2)NC(=O)[C@H](Cc2cccc(C)c2)NC(=O)[C@H](CC(=O)O)NC(=O)[C@H](Cc2ccc(OCC(=O)O)cc2)NC(=O)[C@H](C(C)O)NC(=O)CSC[C@@H](C(=O)N[C@@H](CCN)C(=O)NCCCCCCCCCCC(=O)O)NC(=O)[C@H](C(C)O)NC(=O)[C@H](C(C)C)NC(=O)[C@H](CC2CCCCC2)NC(=O)[C@H](CCN)NC(=O)[C@@H](CC(C)C)NC(=O)[C@H](C)N(C)C1=O` (stereo partly drawn) [Example 2451] ({CH2CO}-[Thr(3ξ)]Y(Carboxymethyl)D[Phe(3-Me)]Y[Bip]K(Ac)[NMeA][dL][Dab][Cha]V[Thr(3ξ)]C[Dab][Aun]-OH; thioether N-14), the IC50 was 0.0139 µM.

Still in this assay, the particulars now being: PE-labeled PD-L1-Ig 20 nM final, Jurkat-hPD-1 cells; read-out: Jurkat HPD1 PDL1 IC50.
As to `CC(C)C[C@@H]1NC(=O)[C@H](Cc2c[nH]c3ccccc23)NC(=O)[C@H](CC(=O)O)NC(=O)[C@H](Cc2ccc(OCC(=O)O)cc2)NC(=O)[C@H](Cc2ccc(OCC(=O)O)cc2)NC(=O)CSC[C@@H](C(=O)NCCOCCOCC(=O)NCCCCCCCCCCC(=O)O)NC(=O)[C@H](Cc2cnc[nH]2)NC(=O)[C@H](CO)NC(=O)[C@H](CC2CCCCC2)NC(=O)[C@H](CCN)NC(=O)[C@@H](CC(C)C)NC(=O)[C@H](C)N(C)C(=O)[C@H](C(C)C)NC(=O)[C@H](Cc2ccc(-c3ccccc3)cc2)NC1=O` [Example 2436] ({CH2CO}-Y(Carboxymethyl)Y(Carboxymethyl)DWL[Bip]V[NMeA][dL][Dab][Cha]SHC[AEEA][Aun]-OH; thioether N-14), the IC50 came to 0.0314 µM.
Still for that read-out and setting: then `CC(C)C[C@@H]1NC(=O)[C@H](Cc2c[nH]c3ccccc23)NC(=O)[C@H](CC(=O)O)NC(=O)[C@H](Cc2ccc(OCC(=O)O)cc2)NC(=O)[C@H](C(C)O)NC(=O)CSC[C@@H](C(=O)NCCOCCOCC(=O)NCCCCCCCCCCC(=O)O)NC(=O)[C@H](C(C)O)NC(=O)[C@H](C(C)C)NC(=O)[C@H](CC2CCCCC2)NC(=O)[C@H](CCN)NC(=O)[C@@H](CC(C)C)NC(=O)[C@H](C)N(C)C(=O)[C@H](CCCNC(N)=O)NC(=O)[C@H](Cc2ccc(-c3ccccc3)cc2)NC1=O` (stereo partly drawn) [Example 2437] ({CH2CO}-[Thr(3ξ)]Y(Carboxymethyl)DWL[Bip][Cit][NMeA][dL][Dab][Cha]V[Thr(3ξ)]C[AEEA][Aun]-OH; thioether N-14), with 0.0349 µM; and `CC(=O)NCCCC[C@@H]1NC(=O)[C@H](Cc2ccc(-c3ccccc3)cc2)NC(=O)[C@H](CC(C)C)NC(=O)[C@H](Cc2c[nH]c3ccccc23)NC(=O)[C@H](CC(=O)O)NC(=O)[C@H](Cc2ccc(OCC(=O)O)cc2)NC(=O)[C@H](Cc2ccc(OCC(=O)O)cc2)NC(=O)CSC[C@@H](C(=O)NCCOCCOCC(=O)NCCCCCCCCCCC(=O)O)NC(=O)[C@H](CO)NC(=O)[C@H](C(C)C)NC(=O)[C@H](CC2CCCCC2)NC(=O)[C@H](CCN)NC(=O)[C@@H](CC(C)C)NC(=O)[C@H](C)N(C)C1=O` [Example 2438] ({CH2CO}-Y(Carboxymethyl)Y(Carboxymethyl)DWL[Bip]K(Ac)[NMeA][dL][Dab][Cha]VSC[AEEA][Aun]-OH; thioether N-14), with 0.0168 µM; and `CC(C)C[C@@H]1NC(=O)[C@H](Cc2c[nH]c3ccccc23)NC(=O)[C@H](CC(=O)O)NC(=O)[C@H](Cc2ccc(C(=O)O)cc2)NC(=O)[C@H](Cc2ccc(OCC(=O)O)cc2)NC(=O)CSC[C@@H](C(=O)NCCOCCOCC(=O)NCCCCCCCCCCC(=O)O)NC(=O)[C@H](Cc2cnc[nH]2)NC(=O)[C@H](C(C)C)NC(=O)[C@H](CC2CCCCC2)NC(=O)[C@H](CCN)NC(=O)[C@@H](CC(C)C)NC(=O)[C@H](C)N(C)C(=O)[C@H](C(C)C)NC(=O)[C@H](Cc2ccc(-c3ccccc3)cc2)NC1=O` [Example 2441] ({CH2CO}-Y(Carboxymethyl)[Phe(4-COOH)]DWL[Bip]V[NMeA][dL][Dab][Cha]VHC[AEEA][Aun]-OH; thioether N-14), with 0.0338 µM.
Still for that read-out and setting: then `CC(C)C[C@@H]1NC(=O)[C@H](Cc2c[nH]c3ccccc23)NC(=O)[C@H](CC(=O)O)NC(=O)[C@H](Cc2ccc(OCC(=O)O)cc2)NC(=O)[C@H](Cc2ccc(OCC(=O)O)cc2)NC(=O)CSC[C@@H](C(=O)NCCOCCOCC(=O)NCCCCCCCCCCC(=O)O)NC(=O)[C@H](Cc2c[nH]cn2)NC(=O)[C@H](C(C)C)NC(=O)[C@H](CC2CCCCC2)NC(=O)[C@H](CCN)NC(=O)[C@@H](CC(C)C)NC(=O)[C@H](C)N(C)C(=O)[C@H](C(C)C)NC(=O)[C@H](Cc2ccc(-c3ccccc3)cc2)NC1=O` [Example 2442] ({CH2CO}-Y(Carboxymethyl)Y(Carboxymethyl)DWL[Bip]V[NMeA][dL][Dab][Cha]VHC[AEEA][Aun]-OH; thioether N-14), with 0.0379 µM; and `CC(C)C[C@@H]1NC(=O)[C@H](Cc2c[nH]c3ccccc23)NC(=O)[C@H](CC(=O)O)NC(=O)[C@H](Cc2ccc(C(=O)O)cc2)NC(=O)[C@H](Cc2ccc(OCC(=O)O)cc2)NC(=O)CSC[C@@H](C(=O)NCCOCCOCC(=O)NCCCCCCCCCCC(=O)O)NC(=O)[C@H](CO)NC(=O)[C@H](C(C)(C)O)NC(=O)[C@H](CC2CCCCC2)NC(=O)[C@H](CCN)NC(=O)[C@@H](CC(C)C)NC(=O)[C@H](C)N(C)C(=O)[C@H](C(C)C)NC(=O)[C@H](Cc2ccc(-c3ccccc3)cc2)NC1=O` [Example 2443] ({CH2CO}-Y(Carboxymethyl)[Phe(4-COOH)]DWL[Bip]V[NMeA][dL][Dab][Cha][Val(3-OH)]SC[AEEA][Aun]-OH; thioether N-14), with 0.0236 µM.

Values taken from US20260070945A1, “MACROCYCLIC IMMUNOMODULATORS” (Bristol-Myers Squibb Company, priority 2022, published 2026).
